In patent US20250032524A1, “BROAD SPECTRUM AMINOGLYCOSIDES AND USES THEREOF” (REVAGENIX, INC., priority 2022, published 2025):
Where two headings read alike, the source gives them in different places.

Key:
Assay type in all cases: cell-based
E. coli = assay: MIC broth microdilution (CLSI); details: Escherichia coli
Protocol: (§1) Minimum inhibitory concentrations for representative example compounds herein were determined by a broth microdilution method in accordance with the Clinical and Laboratory Standards Institute (CLSI) guidelines. In brief, organism suspensions were adjusted to a 0.5 McFarland standard to yield a final inoculum between 3×10^5 and 7×10^5 colony-forming units (CFU)/mL. The inoculum was prepared by suspension of a colony from an agar plate that was prepared the previous day. Compound dilutions and inoculum were prepared in sterile, cation adjusted Mueller-Hinton Broth (Beckton Dickinson).
(§2) Bacteria were suspended in sterile saline and added to each assay plate to obtain a final concentration of 5×10^5 CFU/mL. An inoculum volume of 100 μL was added to wells containing 100 μL of broth with 2-fold serial dilutions of the test compound. All inoculated microdilution trays were incubated in ambient air at 35° C. for 18-24 hours. Following incubation, the lowest concentration of the compound that prevented visible growth (OD 600 nm<0.05) is recorded was the MIC. […] Performance of the assay was monitored by the use of laboratory quality-control strains and a standard compound with a defined MIC spectrum (neomycin), in accordance with CLSI guidelines.

A. baumannii = assay: MIC broth microdilution (CLSI); details: Acinetobacter baumannii
Protocol: as §1, §2

P. aeruginosa [1] = assay: MIC broth microdilution (CLSI); details: Pseudomonas aeruginosa
Protocol: as §1, §2

[2] = tested on: AG-resistant P. aeruginosa; assay: Antibacterial surveillance of clinical isolates (MIC50/90); details: 50 isolates with defined aminoglycoside resistance
Protocol: as §1, §2
(§3) Several compounds of the disclosure (Compound 1, 2, and 3) were further evaluated against several hundred bacterial isolates (isolated in the United States and Europe, 1:1) selected from the SENTRY Antimicrobial Surveillance Program (JMI Laboratories, North Liberty, Iowa). The set of clinical isolates included 300 randomly selected Enterobacterales, 103 randomly selected P. aeruginosa, 100 randomly selected A. baumannii-calcoaceticus, 20 randomly selected Methicillin-sensitive S. aureus (MSSA), and 30 randomly selected Methicillin-resistant S. aureus (MRSA). In addition, 101 Enterobacterales and 50 P. aeruginosa isolates with genetically defined mechanisms of aminoglycoside resistance were included. The MIC values at which ≥50% (MIC50) and ≥90% (MIC90) of isolates within a given set are inhibited were determined for each compound against each set of organisms.

[3] = tested on: Methicillin-sensitive S. aureus (MSSA); assay: as above; details: 20 isolates
Protocol: as §1, §2, §3

[4] = tested on: A. baumannii-calcoaceticus; assay: as above; details: 100 isolates
Protocol: as §1, §2, §3

[5] = tested on: AG-resistant Enterobacterales; assay: as above; details: 101 isolates with defined aminoglycoside resistance
Protocol: as §1, §2, §3

[6] = tested on: Methicillin-resistant S. aureus (MRSA); assay: as above; details: 30 isolates
Protocol: as §1, §2, §3

P. aeruginosa [7] = assay: as above; details: 103 isolates
Protocol: as §1, §2, §3

[8] = read-out: Activity (MIC), strain NECO0003, ΔtolC
[9] = read-out: Activity (MIC), strain NECO0245, ArmA
[10] = strain NECO0001, WT QC, read-out: Activity (MIC)
[11] = strain NECO0002, WT, read-out: Activity (MIC)
[12] = strain NECO0243, empty vector, read-out: Activity (MIC)
[13] = strain NECO0244, AAC(6')-Ib, read-out: Activity (MIC)
[14] = strain NECO0289, APH(3')-Ia, read-out: Activity (MIC)
[15] = strain NECO0302, AAC(3)-IIa, read-out: Activity (MIC)
[16] = strain NECO0350, AAC(2')-I, read-out: Activity (MIC)
[17] = strain NECO0359, ANT(4')-Ia, read-out: Activity (MIC)
[18] = read-out: Activity (MIC), strain NABA0007, ΔadeJK efflux
[19] = strain NABA0006, WT parent, read-out: Activity (MIC)
[20] = strain NABA0020, AME negative strain, read-out: Activity (MIC)
[21] = read-out: Activity (MIC), strain NPAE0006, Efflux KO, Aph(3')-IIb
[22] = read-out: Activity (MIC), strain NPAE0010, MexXY over-expressed, Aph(3')-IIb
[23] = strain NPAE0001, WT Aph(3')-IIb, QC, read-out: Activity (MIC)
[24] = strain NPAE0002, WT Aph(3')-IIb, read-out: Activity (MIC)
[25] = strain NPAE0359, aph(3')-IIb KO (tetR), read-out: Activity (MIC)

Compound: C[C@@H](N)[C@@H]1CC[C@@H](N)[C@@H](O[C@@H]2[C@@H](N)[C@H](O)[C@@H](NC(=O)[C@@H](O)[C@H](F)CN)[C@H](O)[C@H]2O[C@@H]2O[C@H](CO)[C@@H](O[C@H]3O[C@@H](CN)[C@@H](O)[C@H](O)[C@H]3N)[C@H]2O)O1 [Compound 4, (2R,3R)-4-amino-N-((1R,2S,3S,4R,5R,6S)-3-amino-4-(((2R,3R,6S)-3-amino-6-((R)-1-aminoethyl)tetrahydro-2H-pyran-2-yl)oxy)-5-(((2S,3R,4S,5R)-4-(((2R,3R,4R,5S,6S)-3-amino-6-(aminomethyl)-4,5-dihydroxytetrahydro-2H-pyran-2-yl)oxy)-3-hydroxy-5-(hydroxymethyl)tetrahydrofuran-2-yl)oxy)-2,6-dihydroxycyclohexyl)-3-fluoro-2-hydroxybutanamide]
- MIC (E. coli; [8]): < 16 µg/mL
- MIC (E. coli; [9]): < 16 µg/mL
- MIC (E. coli; [10]): < 16 µg/mL
- MIC (E. coli; [11]): < 16 µg/mL
- MIC (E. coli; [12]): < 16 µg/mL
- MIC (E. coli; [13]): < 16 µg/mL
- MIC (E. coli; [14]): < 16 µg/mL
- MIC (E. coli; [15]): < 16 µg/mL
- MIC (E. coli; [16]): < 16 µg/mL
- MIC (E. coli; [17]): < 16 µg/mL
- MIC (A. baumannii; [18]): < 16 µg/mL
- MIC (A. baumannii; [19]): < 16 µg/mL
- MIC (A. baumannii; [20]): < 16 µg/mL
- MIC (P. aeruginosa [1]; [21]): < 16 µg/mL
- MIC (P. aeruginosa [1]; [22]): < 16 µg/mL
- MIC (P. aeruginosa [1]; [23]): < 16 µg/mL
- MIC (P. aeruginosa [1]; [24]): < 16 µg/mL
- MIC (P. aeruginosa [1]; [25]): < 16 µg/mL

Compound: C[C@@H](N)[C@@H]1CC[C@@H](N)[C@@H](O[C@@H]2[C@@H](N)[C@H](O)[C@@H](NC(=O)[C@@H](O)CCN)[C@H](O)[C@H]2O[C@@H]2O[C@H](CO)[C@@H](O[C@H]3O[C@@H](CN)[C@@H](O)[C@H](O)[C@H]3N)[C@H]2O)O1 [Compound 5, (S)-4-Amino-N-((1R,2S,3S,4R,5R,6S)-3-Amino-4-(((2R,3R,6S)-3-Amino-6-((R)-1-Aminoethyl)Tetrahydro-2H-Pyran-2-Yl)Oxy)-5-(((2S,3R,4S,5R)-4-(((2R,3R,4R,5S,6S)-3-Amino-6-(Aminomethyl)-4,5-Dihydroxytetrahydro-2H-Pyran-2-Yl)Oxy)-3-Hydroxy-5-(Hydroxymethyl)Tetrahydrofuran-2-Yl)Oxy)-2,6-Dihydroxycyclohexyl)-2-Hydroxybutanamide]
- MIC (E. coli; [8]): < 16 µg/mL
- MIC (E. coli; [9]): < 16 µg/mL
- MIC (E. coli; [10]): < 16 µg/mL
- MIC (E. coli; [11]): < 16 µg/mL
- MIC (E. coli; [12]): < 16 µg/mL
- MIC (E. coli; [13]): < 16 µg/mL
- MIC (E. coli; [14]): < 16 µg/mL
- MIC (E. coli; [15]): < 16 µg/mL
- MIC (E. coli; [16]): < 16 µg/mL
- MIC (E. coli; [17]): < 16 µg/mL
- MIC (A. baumannii; [18]): < 16 µg/mL
- MIC (A. baumannii; [19]): < 16 µg/mL
- MIC (A. baumannii; [20]): < 16 µg/mL
- MIC (P. aeruginosa [1]; [21]): < 16 µg/mL
- MIC (P. aeruginosa [1]; [22]): < 16 µg/mL
- MIC (P. aeruginosa [1]; [23]): < 16 µg/mL
- MIC (P. aeruginosa [1]; [24]): < 16 µg/mL
- MIC (P. aeruginosa [1]; [25]): < 16 µg/mL

Compound: CN[C@@H](C)[C@@H]1CC[C@@H](N)[C@@H](O[C@@H]2[C@@H](N)[C@H](O)[C@@H](NC(=O)[C@@H](O)[C@H](F)CN)[C@H](O)[C@H]2O[C@@H]2O[C@H](CO)[C@@H](O[C@H]3O[C@@H](CN)[C@@H](O)[C@H](O)[C@H]3N)[C@H]2O)O1 [Compound 7, (2R,3R)-4-amino-N-((1R,2S,3S,4R,5R,6S)-3-amino-4-(((2R,3R,6S)-3-amino-6-((S)-1-(methylamino)ethyl)tetrahydro-2H-pyran-2-yl)oxy)-5-(((2S,3R,4S,5R)-4-(((2R,3R,4R,5S,6S)-3-amino-6-(aminomethyl)-4,5-dihydroxytetrahydro-2H-pyran-2-yl)oxy)-3-hydroxy-5-(hydroxymethyl)tetrahydrofuran-2-yl)oxy)-2,6-dihydroxycyclohexyl)-3-fluoro-2-hydroxybutanamide]
- MIC (E. coli; [8]): < 16 µg/mL
- MIC (E. coli; [9]): < 16 µg/mL
- MIC (E. coli; [10]): < 16 µg/mL
- MIC (E. coli; [11]): < 16 µg/mL
- MIC (E. coli; [12]): < 16 µg/mL
- MIC (E. coli; [13]): < 16 µg/mL
- MIC (E. coli; [14]): > 16 µg/mL
- MIC (E. coli; [15]): < 16 µg/mL
- MIC (E. coli; [16]): < 16 µg/mL
- MIC (E. coli; [17]): < 16 µg/mL
- MIC (A. baumannii; [18]): < 16 µg/mL
- MIC (A. baumannii; [19]): < 16 µg/mL
- MIC (A. baumannii; [20]): < 16 µg/mL
- MIC (P. aeruginosa [1]; [21]): < 16 µg/mL
- MIC (P. aeruginosa [1]; [22]): > 16 µg/mL
- MIC (P. aeruginosa [1]; [23]): < 16 µg/mL
- MIC (P. aeruginosa [1]; [24]): < 16 µg/mL
- MIC (P. aeruginosa [1]; [25]): < 16 µg/mL

Compound: C[C@H](N)[C@@H]1CC[C@@H](N)[C@@H](O[C@@H]2[C@@H](N)[C@H](O)[C@@H](N)[C@H](O)[C@H]2O[C@@H]2O[C@H](CO)[C@@H](O[C@H]3O[C@@H](CN)[C@@H](O)[C@H](O)[C@H]3N)[C@H]2O)O1 [Compound 8, (2S,3S,4R,5R,6R)-5-amino-2-(aminomethyl)-6-(((2R,3S,4R,5S)-5-(((1R,2R,3S,4R,5R,6S)-3,5-diamino-2-(((2R,3R,6S)-3-amino-6-((S)-1-aminoethyl)tetrahydro-2H-pyran-2-yl)oxy)-4,6-dihydroxycyclohexyl)oxy)-4-hydroxy-2-(hydroxymethyl)tetrahydrofuran-3-yl)oxy)tetrahydro-2H-pyran-3,4-diol]
- MIC (E. coli; [8]): < 16 µg/mL
- MIC (E. coli; [9]): < 16 µg/mL
- MIC (E. coli; [10]): < 16 µg/mL
- MIC (E. coli; [11]): < 16 µg/mL
- MIC (E. coli; [12]): < 16 µg/mL
- MIC (E. coli; [13]): < 16 µg/mL
- MIC (E. coli; [14]): > 16 µg/mL
- MIC (E. coli; [15]): < 16 µg/mL
- MIC (E. coli; [16]): < 16 µg/mL
- MIC (E. coli; [17]): < 16 µg/mL
- MIC (A. baumannii; [18]): < 16 µg/mL
- MIC (A. baumannii; [19]): < 16 µg/mL
- MIC (A. baumannii; [20]): > 16 µg/mL
- MIC (P. aeruginosa [1]; [21]): < 16 µg/mL
- MIC (P. aeruginosa [1]; [22]): < 16 µg/mL
- MIC (P. aeruginosa [1]; [23]): < 16 µg/mL
- MIC (P. aeruginosa [1]; [24]): < 16 µg/mL
- MIC (P. aeruginosa [1]; [25]): < 16 µg/mL

Compound: gentamicin [reference compound]
- MIC50 [2]: + (+ = MIC50 or MIC90 ≤ 16 μg/mL)
- MIC90 [2]: − (− = MIC50 or MIC90 > 16 μg/mL)
- MIC50 [3]: +/+ (+ = MIC50 or MIC90 ≤ 16 μg/mL)
- MIC90 [3]: +/+ (+ = MIC50 or MIC90 ≤ 16 μg/mL)
- MIC50 [4]: + (+ = MIC50 or MIC90 ≤ 16 μg/mL)
- MIC90 [4]: − (− = MIC50 or MIC90 > 16 μg/mL)
- MIC50 [5]: −/− (− = MIC50 or MIC90 > 16 μg/mL)
- MIC90 [5]: −/− (− = MIC50 or MIC90 > 16 μg/mL)
- MIC50 [6]: +/+ (+ = MIC50 or MIC90 ≤ 16 μg/mL)
- MIC90 [6]: +/+ (+ = MIC50 or MIC90 ≤ 16 μg/mL)
- MIC50 (P. aeruginosa [7]): +/+ (+ = MIC50 or MIC90 ≤ 16 μg/mL)
- MIC90 (P. aeruginosa [7]): +/+ (+ = MIC50 or MIC90 ≤ 16 μg/mL)
